Measurements: ChEMBL document CHEMBL1134625 (J Med Chem, 2001)

Legend:
Vasopressin V1a receptor = Vasopressin V1a receptor (Homo sapiens, UniProt P37288)
[1] = biological target: 5-hydroxytryptamine receptor 1B (Homo sapiens, UniProt P28222)
D(1B) dopamine receptor = D(1B) dopamine receptor (Homo sapiens, UniProt P21918)
[2] = biological target: T1, 5-hydroxytryptamine receptor 1A (Homo sapiens, UniProt P08908)
T1 sequence (P08908 whole entry): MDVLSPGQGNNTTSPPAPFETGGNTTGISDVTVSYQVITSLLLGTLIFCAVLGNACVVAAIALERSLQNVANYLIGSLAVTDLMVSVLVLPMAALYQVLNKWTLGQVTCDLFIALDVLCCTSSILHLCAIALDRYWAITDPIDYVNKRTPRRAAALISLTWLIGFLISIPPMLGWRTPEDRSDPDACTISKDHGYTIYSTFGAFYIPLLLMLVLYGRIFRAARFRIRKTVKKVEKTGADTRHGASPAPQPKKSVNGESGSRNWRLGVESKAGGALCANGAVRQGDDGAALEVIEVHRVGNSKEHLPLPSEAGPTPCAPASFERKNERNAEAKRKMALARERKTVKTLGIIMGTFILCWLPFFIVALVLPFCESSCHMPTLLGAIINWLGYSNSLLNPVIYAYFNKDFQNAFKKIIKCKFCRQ

Translocator protein = Translocator protein (Homo sapiens, UniProt P30536)
D(1A) dopamine receptor = D(1A) dopamine receptor (Homo sapiens, UniProt P21728)
Adenosine receptor A1 = Adenosine receptor A1 (Homo sapiens, UniProt P30542)
[3] = biological target: Sodium-dependent noradrenaline transporter (Homo sapiens, UniProt P23975)
[4] = biological target: Melatonin receptor type 1A (Homo sapiens, UniProt P48039)
Adenosine receptor A3 = biological target: T2, Adenosine receptor A3 (Homo sapiens, UniProt P0DMS8)
T2 sequence (P0DMS8 whole entry): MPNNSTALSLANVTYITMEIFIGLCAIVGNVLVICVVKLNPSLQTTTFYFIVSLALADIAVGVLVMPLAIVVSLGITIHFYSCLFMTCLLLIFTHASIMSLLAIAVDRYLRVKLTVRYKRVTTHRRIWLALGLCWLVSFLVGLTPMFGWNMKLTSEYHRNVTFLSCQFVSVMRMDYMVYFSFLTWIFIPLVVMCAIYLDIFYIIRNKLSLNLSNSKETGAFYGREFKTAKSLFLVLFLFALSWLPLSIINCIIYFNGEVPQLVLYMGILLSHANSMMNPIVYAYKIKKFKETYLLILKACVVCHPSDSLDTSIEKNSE

Substance-K receptor = Substance-K receptor (Homo sapiens, UniProt P21452)
[5] = biological target: T3, Adrenergic receptor alpha-1 (Homo sapiens, UniProt P35348+P25100+P35368); format: protein assay
T3 sequence (P35348 whole entry): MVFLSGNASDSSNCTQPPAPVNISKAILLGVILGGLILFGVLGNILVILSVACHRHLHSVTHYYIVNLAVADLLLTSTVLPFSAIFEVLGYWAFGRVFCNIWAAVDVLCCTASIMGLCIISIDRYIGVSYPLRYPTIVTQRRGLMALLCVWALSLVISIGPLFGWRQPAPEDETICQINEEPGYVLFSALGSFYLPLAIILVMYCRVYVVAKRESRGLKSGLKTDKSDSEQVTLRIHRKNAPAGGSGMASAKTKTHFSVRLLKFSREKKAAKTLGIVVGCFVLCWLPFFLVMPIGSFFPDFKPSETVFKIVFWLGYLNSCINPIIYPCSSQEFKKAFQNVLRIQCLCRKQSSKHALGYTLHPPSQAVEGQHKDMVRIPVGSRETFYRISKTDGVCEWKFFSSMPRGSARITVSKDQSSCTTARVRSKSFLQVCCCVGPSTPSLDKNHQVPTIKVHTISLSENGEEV
T3 sequence (P25100 whole entry): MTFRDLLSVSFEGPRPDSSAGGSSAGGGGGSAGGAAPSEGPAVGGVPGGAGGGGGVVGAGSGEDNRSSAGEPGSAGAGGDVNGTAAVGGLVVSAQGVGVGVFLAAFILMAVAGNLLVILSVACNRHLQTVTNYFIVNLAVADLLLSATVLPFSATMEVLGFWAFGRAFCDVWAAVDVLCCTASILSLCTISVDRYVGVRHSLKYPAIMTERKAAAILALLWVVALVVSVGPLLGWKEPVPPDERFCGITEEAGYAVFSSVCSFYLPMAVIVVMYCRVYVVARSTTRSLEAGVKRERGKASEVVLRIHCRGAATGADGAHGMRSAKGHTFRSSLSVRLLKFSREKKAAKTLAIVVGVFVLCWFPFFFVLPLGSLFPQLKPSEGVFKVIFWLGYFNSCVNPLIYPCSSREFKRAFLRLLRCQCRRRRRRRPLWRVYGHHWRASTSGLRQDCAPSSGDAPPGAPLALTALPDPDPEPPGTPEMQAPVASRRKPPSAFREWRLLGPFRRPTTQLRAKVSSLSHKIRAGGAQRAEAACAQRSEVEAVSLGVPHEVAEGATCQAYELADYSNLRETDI
T3 sequence (P35368 whole entry): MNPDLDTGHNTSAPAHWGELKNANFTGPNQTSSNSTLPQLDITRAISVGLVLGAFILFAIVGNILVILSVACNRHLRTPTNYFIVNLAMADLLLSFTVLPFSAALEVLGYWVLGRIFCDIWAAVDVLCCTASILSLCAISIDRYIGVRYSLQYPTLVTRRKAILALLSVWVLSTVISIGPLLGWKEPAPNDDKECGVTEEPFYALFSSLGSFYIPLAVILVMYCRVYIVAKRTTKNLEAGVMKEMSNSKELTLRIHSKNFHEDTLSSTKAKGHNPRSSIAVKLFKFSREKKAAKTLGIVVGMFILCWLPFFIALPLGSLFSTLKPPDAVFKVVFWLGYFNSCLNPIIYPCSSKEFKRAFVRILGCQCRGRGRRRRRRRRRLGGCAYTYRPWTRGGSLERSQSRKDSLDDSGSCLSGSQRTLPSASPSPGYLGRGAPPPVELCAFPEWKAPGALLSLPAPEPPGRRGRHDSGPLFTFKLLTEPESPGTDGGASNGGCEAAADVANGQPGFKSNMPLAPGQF

Chain of Translocator protein (P30536 whole entry): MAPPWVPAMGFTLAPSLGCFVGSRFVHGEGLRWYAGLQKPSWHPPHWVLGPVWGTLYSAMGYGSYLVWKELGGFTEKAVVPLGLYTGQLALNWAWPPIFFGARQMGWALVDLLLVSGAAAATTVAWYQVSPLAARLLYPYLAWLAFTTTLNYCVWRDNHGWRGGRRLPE
Chain of D(1B) dopamine receptor (P21918 whole entry): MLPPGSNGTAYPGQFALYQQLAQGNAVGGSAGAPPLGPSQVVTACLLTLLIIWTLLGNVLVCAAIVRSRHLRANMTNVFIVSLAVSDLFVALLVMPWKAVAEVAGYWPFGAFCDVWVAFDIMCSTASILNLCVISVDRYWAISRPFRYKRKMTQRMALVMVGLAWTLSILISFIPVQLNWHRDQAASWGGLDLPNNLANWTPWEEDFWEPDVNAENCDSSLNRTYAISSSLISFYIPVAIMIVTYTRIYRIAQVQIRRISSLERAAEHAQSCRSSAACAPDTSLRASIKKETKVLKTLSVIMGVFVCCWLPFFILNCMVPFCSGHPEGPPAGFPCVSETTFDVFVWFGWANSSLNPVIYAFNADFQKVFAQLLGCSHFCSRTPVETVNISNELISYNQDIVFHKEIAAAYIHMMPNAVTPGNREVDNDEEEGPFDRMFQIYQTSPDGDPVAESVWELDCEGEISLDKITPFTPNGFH
Chain of Sodium-dependent noradrenaline transporter (P23975 whole entry): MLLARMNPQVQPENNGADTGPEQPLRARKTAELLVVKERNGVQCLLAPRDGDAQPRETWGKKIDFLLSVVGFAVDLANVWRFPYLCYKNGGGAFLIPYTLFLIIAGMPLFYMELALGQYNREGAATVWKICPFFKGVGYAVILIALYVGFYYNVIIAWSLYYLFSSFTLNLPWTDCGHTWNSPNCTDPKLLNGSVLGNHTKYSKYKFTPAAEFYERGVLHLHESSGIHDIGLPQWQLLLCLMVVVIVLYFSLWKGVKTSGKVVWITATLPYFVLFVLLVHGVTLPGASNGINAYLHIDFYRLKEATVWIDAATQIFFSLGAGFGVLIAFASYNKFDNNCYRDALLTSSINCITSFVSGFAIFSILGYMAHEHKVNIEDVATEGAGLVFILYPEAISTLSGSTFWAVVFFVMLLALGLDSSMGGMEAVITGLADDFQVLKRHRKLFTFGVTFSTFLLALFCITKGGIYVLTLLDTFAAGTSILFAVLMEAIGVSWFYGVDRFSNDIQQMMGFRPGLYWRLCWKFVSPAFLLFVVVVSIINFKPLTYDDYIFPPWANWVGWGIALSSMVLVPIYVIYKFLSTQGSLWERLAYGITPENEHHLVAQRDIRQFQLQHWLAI
Chain of Vasopressin V1a receptor (P37288 whole entry): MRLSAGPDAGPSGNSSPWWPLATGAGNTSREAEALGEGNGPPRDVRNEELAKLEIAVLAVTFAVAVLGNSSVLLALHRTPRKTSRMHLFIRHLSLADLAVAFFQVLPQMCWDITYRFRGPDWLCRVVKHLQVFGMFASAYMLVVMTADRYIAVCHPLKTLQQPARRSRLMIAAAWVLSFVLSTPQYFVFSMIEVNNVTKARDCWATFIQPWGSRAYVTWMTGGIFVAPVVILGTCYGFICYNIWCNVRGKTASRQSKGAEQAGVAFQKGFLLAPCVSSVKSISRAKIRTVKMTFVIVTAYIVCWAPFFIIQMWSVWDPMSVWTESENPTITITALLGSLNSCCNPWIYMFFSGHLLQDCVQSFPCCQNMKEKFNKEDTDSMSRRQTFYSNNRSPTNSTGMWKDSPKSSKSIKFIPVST
Chain of 5-hydroxytryptamine receptor 1B (P28222 whole entry): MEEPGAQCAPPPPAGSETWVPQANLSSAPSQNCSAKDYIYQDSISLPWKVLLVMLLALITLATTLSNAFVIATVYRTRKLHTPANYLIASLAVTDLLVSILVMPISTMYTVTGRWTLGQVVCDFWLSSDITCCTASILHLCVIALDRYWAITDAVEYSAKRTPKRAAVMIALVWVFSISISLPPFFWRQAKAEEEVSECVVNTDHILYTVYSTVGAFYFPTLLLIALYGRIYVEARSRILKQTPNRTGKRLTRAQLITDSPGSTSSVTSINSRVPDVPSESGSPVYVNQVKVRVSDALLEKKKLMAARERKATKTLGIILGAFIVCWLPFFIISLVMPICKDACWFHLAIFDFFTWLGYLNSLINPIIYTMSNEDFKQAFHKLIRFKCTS
Chain of Substance-K receptor (P21452 whole entry): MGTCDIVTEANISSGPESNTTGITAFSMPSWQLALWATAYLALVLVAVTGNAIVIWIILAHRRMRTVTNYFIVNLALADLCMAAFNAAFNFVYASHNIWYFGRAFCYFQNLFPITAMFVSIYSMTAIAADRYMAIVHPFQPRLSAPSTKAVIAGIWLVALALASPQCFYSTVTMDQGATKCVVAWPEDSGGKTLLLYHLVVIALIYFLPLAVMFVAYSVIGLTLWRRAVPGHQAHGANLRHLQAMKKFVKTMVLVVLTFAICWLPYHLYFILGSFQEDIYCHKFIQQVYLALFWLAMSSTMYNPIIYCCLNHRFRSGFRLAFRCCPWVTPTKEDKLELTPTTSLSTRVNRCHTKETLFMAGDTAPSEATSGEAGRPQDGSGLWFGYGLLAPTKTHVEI
Chain of D(1A) dopamine receptor (P21728 whole entry): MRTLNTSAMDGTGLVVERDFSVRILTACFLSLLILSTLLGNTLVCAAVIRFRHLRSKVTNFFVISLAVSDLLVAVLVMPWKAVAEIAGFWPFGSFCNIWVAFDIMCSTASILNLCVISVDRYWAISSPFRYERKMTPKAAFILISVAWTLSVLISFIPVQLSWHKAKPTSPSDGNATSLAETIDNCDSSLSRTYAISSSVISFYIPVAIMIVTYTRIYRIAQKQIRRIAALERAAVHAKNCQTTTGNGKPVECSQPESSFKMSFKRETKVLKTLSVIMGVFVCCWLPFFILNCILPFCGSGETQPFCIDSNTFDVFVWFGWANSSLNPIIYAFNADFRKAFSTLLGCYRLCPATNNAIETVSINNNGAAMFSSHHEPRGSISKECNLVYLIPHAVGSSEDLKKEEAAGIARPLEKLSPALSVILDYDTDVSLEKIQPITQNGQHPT
Chain of Adenosine receptor A1 (P30542 whole entry): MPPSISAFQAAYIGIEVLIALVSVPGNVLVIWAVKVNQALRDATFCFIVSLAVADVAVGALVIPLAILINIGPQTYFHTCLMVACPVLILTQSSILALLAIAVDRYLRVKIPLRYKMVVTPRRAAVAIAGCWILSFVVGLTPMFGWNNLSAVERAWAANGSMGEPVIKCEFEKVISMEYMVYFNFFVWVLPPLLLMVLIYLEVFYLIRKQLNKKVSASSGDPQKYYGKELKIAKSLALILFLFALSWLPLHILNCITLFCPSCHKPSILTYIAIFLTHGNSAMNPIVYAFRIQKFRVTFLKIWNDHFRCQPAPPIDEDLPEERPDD
Chain of Melatonin receptor type 1A (P48039 whole entry): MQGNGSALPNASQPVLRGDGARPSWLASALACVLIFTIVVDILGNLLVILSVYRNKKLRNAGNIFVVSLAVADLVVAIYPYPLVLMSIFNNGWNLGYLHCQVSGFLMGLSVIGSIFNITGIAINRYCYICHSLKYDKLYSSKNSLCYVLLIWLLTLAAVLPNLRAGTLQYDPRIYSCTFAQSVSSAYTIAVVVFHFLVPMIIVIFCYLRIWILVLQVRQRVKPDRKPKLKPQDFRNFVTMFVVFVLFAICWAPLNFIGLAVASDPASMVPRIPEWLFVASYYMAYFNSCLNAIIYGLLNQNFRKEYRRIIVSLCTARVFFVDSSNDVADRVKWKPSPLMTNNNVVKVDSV

`O=C(OCc1cc2c(cc1Cl)OCO2)N1CCC(n2c(O)nc3ccccc32)CC1` gave an IC50 (Vasopressin V1a receptor) of 2220 nM, an IC50 [1] of 708 nM and an IC50 (D(1B) dopamine receptor) of 4890 nM. For the same compound, the IC50 [2] was 4650 nM, the IC50 (Translocator protein) was 1040 nM and the IC50 (D(1A) dopamine receptor) was 7580 nM. It also gave an IC50 (Adenosine receptor A1) of 2640 nM, an IC50 [3] of 3020 nM and an IC50 [4] of 1740 nM. For the same compound, the IC50 (Adenosine receptor A3) was 1780 nM, the IC50 (Substance-K receptor) was 4420 nM and the IC50 [5] was 1340 nM.
